Columns and labels:
Assay type in all cases: in vivo
Conditions in all cases: application rate 320 g/ha, scored visually after about 3 weeks
Stellaria media = assay: Pre-emergence herbicidal efficacy, STEME
Text: (§1) C.1 Pre-Emergence Herbicidal Action and Crop Plant Compatibility
(§2) Seeds of monocotyledonous and dicotyledonous weed plants and crop plants are placed in plastic or organic planting pots and covered with soil. The compounds of the invention, formulated in the form of wettable powders (WP) or as emulsion concentrates (EC), are then applied onto the surface of the covering soil as aqueous suspension or emulsion with addition of 0.5% additive at a water application rate of […] (converted). After the treatment, the pots are placed in a greenhouse and kept under good growth conditions for the trial plants. After about 3 weeks, the effect of the preparations is scored visually in comparison with untreated controls as percentages. For example, 100% activity=the plants have died, 0% activity=like control plants.
(§3) ABUTH: Abutilon theophrasti ALOMY: Alopecurus myosuroides AMARE: Amaranthus retroflexus AVEFA: Avena fatua CYPES: Cyperus esculentus ECHCG: Echinochloa crus-galli LOLMU: Lolium multiflorum MATIN: Matricaria inodora PHBPU: Ipomoea purpurea POLCO: Polygonum convolvulus SETVI: Setaria viridis STEME: Stellaria media VERPE: Veronica persica VTOTR: Viola tricolor

Matricaria inodora = assay: Pre-emergence herbicidal efficacy, MATIN
Text: as §1, §2, §3

Viola tricolor = assay: Pre-emergence herbicidal efficacy, VIOTR
Text: as §1, §2, §3

Row | Structure (SMILES) | Herbicidal efficacy against STEME (Stellaria media) [%] | Herbicidal efficacy against MATIN (Matricaria inodora) [%] | Herbicidal efficacy against VIOTR (Viola tricolor) [%]
1 | Cc1ccc2c(c1)[C@H](Nc1nc3n(n1)CCN(C(=O)c1ccccc1)C3)CC2 [Example I-174] | 100 | 90 | 100
2 | Cc1ccc2c(c1)[C@H](Nc1nc3n(n1)CCN(C(=O)c1cccc(C(F)(F)F)c1)C3)CC2 [Example I-176] | 80 | 80 | 90
3 | Cc1ccc2c(c1)[C@H](Nc1nc3n(n1)CCN(C(=O)c1ccccc1Cl)C3)CC2 [Example I-177] | 100 | 90 | 100
4 | Cc1ccc2c(c1)[C@H](Nc1nc3n(n1)CCN(C(=O)c1cccc(Cl)c1)C3)CC2 [Example I-178] | 100 | 70 | 100
5 | Cc1ccc2c(c1)[C@H](Nc1nc3n(n1)CCN(C(=O)c1ccc(Cl)cc1)C3)CC2 [Example I-179] | 100 | 90 | 70
6 | Cc1ccc2c(c1)[C@H](Nc1nc3n(n1)CCN(C(=O)c1ccccc1)C3)CCC2 [Example I-181] | 100 | 100 | 100
7 | Cc1ccc2c(c1)[C@H](Nc1nc3n(n1)CCN(C(=O)c1cccc(C(F)(F)F)c1)C3)CCC2 [Example I-183] | 100 | 90 | 90
8 | Cc1ccc2c(c1)[C@H](Nc1nc3n(n1)CCN(C(=O)c1ccccc1Cl)C3)CCC2 [Example I-184] | 100 | 90 | 100
9 | Cc1ccc2c(c1)[C@H](Nc1nc3n(n1)CCN(C(=O)c1cccc(Cl)c1)C3)CCC2 [Example I-185] | 100 | 90 | 100
10 | Cc1ccc2c(c1)[C@H](Nc1nc3n(n1)CCN(C(=O)c1ccc(Cl)cc1)C3)CCC2 [Example I-186] | 100 | 80 | 100
11 | c1ccc2c(c1)OCCC2Nc1nc2n(n1)CCCCS2 (stereo not drawn) [Example I-211] | 100 | 100 | 100
12 | c1ccc2c(c1)CCC2Nc1nc2n(n1)CCCCS2 (stereo not drawn) [Example I-212] | 100 | 100 | 100
13 | c1ccc2c(c1)CCCC2Nc1nc2n(n1)CCCCS2 (stereo not drawn) [Example I-216] | 100 | 100 | 100
14 | O=C1CCn2nc(NC3CCc4ccccc43)nc2N1CC1CCCCC1 (stereo not drawn) [Example I-223] | 100 | 90 | 90
15 | O=C1CCn2nc(NC3CCCc4ccccc43)nc2N1CC1CC1 (stereo not drawn) [Example I-228] | 100 | 100 | 100
16 | O=S1(=O)CCCCn2nc(NC3CCc4ccccc43)nc21 (stereo not drawn) [Example I-236] | 100 | 100 | 100
17 | O=C1CCn2nc(NC3CCCc4ccccc43)nc2N1CC1CCCCC1 (stereo not drawn) [Example I-271] | 90 | 90 | 90
18 | CS(=O)(=O)N1CCCn2nc(NC3CCCc4ccccc43)nc21 (stereo not drawn) [Example I-305] | 100 | 100 | 100
